# Source: patent US5385899A, “Aminoalkyl-substituted 5,6-dihydro-dibenz[b,e]azepine-6,11-dione-11-oximes” (Bayer Aktiengesellschaft, priority 1991, dated 1995)
# Like-named read-outs stand apart in the source and are kept apart here.
# Test system: HIV
# Assay: HIV infection in cell culture: suppression of virus-induced syncytia (PBLs or H9 cells)
# Type: cell-based
# Details: read-out: IC50 (suppression of 50% of virus-induced syncytia)
# Description: The HIV test was carried out with slight modifications according to the method of Pauwels et al. [cf. Journal of Virological Methods 20, (1988), 309-321].
# Normal human blood lyphocytes (PBLs) were concentrated by means of Ficoll-Hypaque and stimulated with phytohaemagglutinin (90 μg/ml) and interleukin-2 (40 U/ml) in RPMI 1640 and 20% foetal calf serum. For infection with the infectious HIV, PBLs were pelleted and the cell pellet was then suspended in 1 ml of HIV virus adsorption solution and incubated for 1 hour at 37° C.
# Alternatively, HIV-susceptible H9 cells were employed instead of normal human blood lymphocytes for testing the antiviral effects of the compounds according to the invention.
# The virus adsorption solution was centrifuged and the infected cell pellet was taken up in growth medium so that a concentration of 1×10^5 cells per ml was established. The cells infected in this way were pipetted into the wells of 96-well microtiter plates to give 1×10^4 cells/well.
# The first vertical row of the microtiter plate contained only growth medium and cells which had not been infected, but otherwise treated exactly as described above (cell control). The second vertical row of the microtiter plate contained only HIV-infected cells (virus control) in growth medium. The other wells contained the compounds according to the invention in differing concentrations, starting from the wells of the 3rd vertical row of the microtiter plate, from which the test substances were diluted 2^10 times in 2-fold steps.
# The test batches were incubated at 37° C. until, in the untreated virus control, the syncytia formation typical of HIV occurred (between day 3 and 6 after infection), which was then microscopically assessed. Under these test conditions, in the untreated virus control about 20-50 syncytia resulted, while the untreated cell control contained no syncytia.
# The IC50 values were determined as the concentration of the treated and infected cells at which 50% (about 10-20 syncytia) of the virus-induced syncytia were suppressed by treatment with the compound according to the invention.
# [1] = Human immunodeficiency virus 1, 72 h, HIV-infected PBLs or alternatively H9 cells, syncytia assessed microscopically between day 3 and 6 after infection, 37° C.
Structure (SMILES),IC50 [1],"IC50 (Human immunodeficiency virus 1, H9, 72 h)"
"CN(C)CCON=c1c2cc(Cl)ccc2[nH]c(=O)c2ccccc12 (mixture of isomers) [Example 1, (E/Z)-2-Chloro-11-(2-dimethylaminoethoxyimino)-6-oxo-5,6-dihydro-11H-dibenz[b,e] azepine]",380 nM,
"Cc1ccnc2c1NC(=O)c1cccnc1N2C1CC1 [BIRG 587, reference compound]",,90 nM
O=c1[nH]c2ccc(Cl)cc2c(=NOCCN2CCOCC2)c2ccccc12 [Example 3],1500 nM,
